Reference: patent US20080260774A1, “Alpha-galactosyl ceramide analogs and their use as immunotherapies” (priority 2007, published 2008)
Entries after “also recorded” stand apart in the source; their conditions may differ.

Assays:
[1] = system: human naïve NKTs (CD161^+CD3^+); test: Cytokine/chemokine secretion by human naïve CD161+CD3+ NKTs co-cultured with autologous immature CD14+ DCs; type: cell-based; details: for induction of IL-3, GM-CSF and IL-15 / secretion of IFN-γ: 10 μg/ml, 18 hour culture; for secretion of IFN-γ: compared with α-GalCer; for IFN/IL-4 ratio (TH1/TH2 bias): normalized to DMSO control
BALB/c mice [2] = test: Expansion/activation of mouse splenocyte subpopulations 72 h after injection; type: in vivo; details: for B cell expansion: FIGS. 26E, 28E and 30E; for total and mature DCs: FIGS. 26B, 28B and 30B; for total and mature DCs / activation of B cells: compared with C1; for CD8^+/CD4^+ ratio: FIGS. 26H, 28H and 30H; for activation of B cells: IM route
[3] = system: syngeneic lung cancer (TC1) cells; test: Lung cancer model in mice (TC1, IV inoculation); type: in vivo, mouse; details: for anti-cancer efficacy compared with C1: IV administration
BALB/c mice [4] = test: Mouse serum cytokines/chemokines after IV, SubQ or IM injection; type: in vivo; details: for serum IL-2, IL-12, MIP-1β and MCP-1: IV administration
[5] = system: syngeneic breast cancer (4T1); test: Breast cancer model in mice (4T1, SubQ inoculation); type: in vivo, mouse
[6] = system: FLU-A virus serotype H1N1 (WSN); test: Influenza virus H1N1 (WSN) infection in BALB/c mice; details: mouse, in vivo
[7] = system: FLU-A virus serotype H1N1 (WSN); test: Cytopathetic effect / virus titer in MDCK cells infected with H1N1 (WSN); type: cell-based
Experimental: FIG. 60(A-B) show the cytopathetic effect (CPE) of Madin-Darby canine kidney (MDCK) cells in vitro. MDCK cells were pretreated with vehicle, α-GalCer or one of the α-GalCer analogs C13, C14 or C16 at 10 μg/ml for four hours, followed by infection with FLU-A virus serotype H1N1 (WSN) at 10TCID50.
BALB/c mice were treated via intranasal route with control, α-GalCer (C1) or the α-GalCer analogs C13, C14 or C16 at one hour prior to virus challenge with H1N1 (WSN). […] In general, certain α-GalCer analogs may exert direct anti-viral effects, or act indirectly via immune stimulation. […] MDCK cells were pretreated with vehicle, α-GalCer or one of the α-GalCer analogs C13, C14 or C16 at 10 μg/ml for four hours, followed by infection with FLU-A virus serotype H1N1 (WSN) at 10TCID50.

Sphingomonas capsulata = test: Antibacterial efficacy in Sphingomonas capsulata infected mice; type: in vivo, mouse; details: for CFU numbers in liver: 100 μg/kg IP, 24 hour after bacterial infection
Text: Sphingomonas capsulata is a common environmental bacterial strain that is found in many places such as the air and water. It can be easily identified on nutrient agar plates because of its yellow colony color. […] Since the antibacterial activities of glycolipid antigens are mediated through the activation of NKT cells by glycolipid bound-CD1-d molecules, evaluation of the antibacterial efficacies using the disease model of Sphingomonas capsulata infection will focus on the impact of the NKT mediated pathway that is activated by glycolipid bindings. Six to eight week old female C57BL/6 mice were injected IP with Sphingomonas capsulate cells. […] Twenty-four hours after bacterial infection, livers were removed from mice and homogenized. Colony formation units (CFU) of Sphingomonas capsulate in liver homogenates were determined by plating diluted samples on nutrient plates. Colonies were counted after incubation for 48 hours at 37° C. […] To confirm the antibacterial efficacies of these α-GalCer analogs, another study was conducted to repeat the study by treating infected mice with 50 μg/kg in the same disease model. […] Six to eight week old female C57BL/6 mice were injected IP with 5×10^8 Sphingomonas capsulate cells. Mice were grouped into treatment and control groups with 4-6 mice per group. Four hours after the infection, mice in the treatment group were injected IP with testing α-GalCer analogs at 50 or 100 μg/kg, and the control group mice were injected with same volumes of PBS. Twenty-four hours after bacterial infection, mice from all groups were sacrificed. Livers were removed from mice and homogenized in 0.9% NaCl, 0.02% Tween 80 using tissue homogenizers. Colony formation units (CFU) of Sphingomonas capsulate in liver homogenates were determined by plating diluted samples on nutrient plates. Colonies were counted after incubation for 48 hours at 37° C.

naïve CD161^+/CD3^+ NKTs = test: Human NKT TCR activation (phosphoproteins), glycolipid presented by HeLa, HeLa-CD1d or iDCs, 10 μg/ml; type: cell-based; details: for intracellular phospho-CD3ε / phospho-ERK1/2: 10 μg/ml
tetanus toxoid (TT) = details: mouse, in vivo
[8] = system: extracellular domain of the M2 protein of the H1N1 subtype of the Influenza A virus; details: mouse, in vivo
[9] = system: primary naïve human iNKTs; test: Cytokine production by primary naïve human iNKTs cultured with autologous immature DCs; type: cell-based; details: compared with C11
C57BL/6 mice = test: Expansion of NKT subsets in spleens of C57BL/6 mice; type: in vivo; details: C57BL/6 Wt, 72 h post IV injection, 0.1 μg per mouse
[10] = system: H5 of avian influenza viruses (pHA); type: in vivo, mouse; details: mouse, in vivo

## CCCCCCCCCCCCCC[C@@H](O)[C@@H](O)[C@H](CO[C@H]1O[C@H](CO)[C@H](O)[C@H](O)[C@H]1O)NC(=O)CCCCCc1ccccc1 [C10]
[1]
  induction of IL-3, GM-CSF and IL-15: greater induction of IL-3, granulocyte/macrophage colony-stimulating factor (GM-CSF), and IL-15
BALB/c mice [2]
  B cell expansion: more active than C1
[3]
  anti-cancer efficacy compared with C1: significantly greater anti-cancer efficacy than C1

## CCCCCCCCCCCCCC[C@@H](O)[C@@H](O)[C@H](CO[C@H]1O[C@H](CO)[C@H](O)[C@H](O)[C@H]1O)NC(=O)CCCCCCCCCCc1ccccc1 [C16]
[1]
  induction of IL-3, GM-CSF and IL-15: greater induction of IL-3, granulocyte/macrophage colony-stimulating factor (GM-CSF), and IL-15
  secretion of IFN-γ: significantly greater secretion of IFN-γ than α-GalCer
BALB/c mice [4]; 2 hours, IV route, compared with C1
  IFN-γ/IL-4 ratio (TH1/TH2 bias): less TH2 responses than C1
BALB/c mice [4]
  serum IL-2, IL-12, MIP-1β and MCP-1: striking rises in IL-2, IL-12, MIP-1β and MCP-1
BALB/c mice [4]; IV route, over 72 hours
  serum level of IFN-γ: level of activity close to that of C1
BALB/c mice [2]
  total and mature DCs: significantly greater rises in total and mature DCs than C1
  B cell expansion: most effective in B cell expansion
  CD8^+/CD4^+ ratio: more potent than C1
  activation of B cells: stronger activations of B cells than C1
BALB/c mice [2]; IV administration, 72 hours
  expansion of splenocytes: greater potency than C1
BALB/c mice [2]; SubQ route
  CD4^+ T cells: more active over control
  CD8^+ T cells: more activity than C1
BALB/c mice [2]; mouse, in vivo
  CD8^+ T cell expansion/activation: comparable activities as C1; also recorded: more active than C1
  NK and NKT expansion/activation: comparable activities as C1
  expansion/activation of NKs and NKTs: best capacity for expansion/activation of NKs and NKTs
[3]
  anti-cancer efficacy compared with C1: significantly greater anti-cancer efficacy than C1
[5]; SubQ delivery
  effects on survival compared with C1: did not differ significantly from that of C1
  suppression of tumor size compared with C1: significantly greater suppression of tumor size than C1
  tumor growth and survival compared to control: able to suppress tumor growth and prolong survival as compared to control
[6]; ip
  cumulative proportion of survival: prolonged survival
[7]
  entry/replication of H1N1 virus (virus titer): slight inhibition of the entry/replication of H1N1 virus in vitro
Sphingomonas capsulata; 50 μg/kg
  antibacterial efficacies (CFU in liver): significant in comparison to the untreated group
Sphingomonas capsulata
  CFU numbers in liver: significantly lower than the control group

## CCCCCCCCCCCCCCCCCCCCCCCCCC(=O)N[C@@H](CS[C@H]1O[C@H](CO)[C@H](O)[C@H](O)[C@H]1O)[C@H](O)[C@H](O)CCCCCCCCCCCCCC [C4]
[1]
  IFN/IL-4 ratio (TH1/TH2 bias): more TH2-biased

## CCCCCCCCCCCCCC[C@@H](O)[C@@H](O)[C@H](CO[C@H]1O[C@H](CO)[C@H](O)[C@H](O)[C@H]1O)NC(=O)CCCCCCCc1ccccc1 [C11]
[1]
  induction of IL-3, GM-CSF and IL-15: greater induction of IL-3, granulocyte/macrophage colony-stimulating factor (GM-CSF), and IL-15
  secretion of IFN-γ: significantly greater secretion of IFN-γ than α-GalCer
naïve CD161^+/CD3^+ NKTs; CD1d-dependent, HeLa-CD1d or DCs
  TCR activation: stronger in TCR activation than compounds C1 and C17
naïve CD161^+/CD3^+ NKTs; presented by DCs
  intracellular phospho-CD3ε: 21.3 folds
naïve CD161^+/CD3^+ NKTs; presented by HeLa-CD1d cells
  intracellular phospho-CD3ε: 10 folds of control
naïve CD161^+/CD3^+ NKTs; with DCs
  phospho-ERK1/2: 48.3 folds
naïve CD161^+/CD3^+ NKTs; with HeLa-CD1d cells
  phospho-ERK1/2: 14.6 folds increase
BALB/c mice [4]
  serum IL-2, IL-12, MIP-1β and MCP-1: striking rises in IL-2, IL-12, MIP-1β and MCP-1
BALB/c mice [2]
  CD8^+/CD4^+ ratio: more potent than C1
  activation of B cells: stronger activations of B cells than C1
BALB/c mice [2]; SubQ route
  CD8^+ T cells: more activity than C1
BALB/c mice [2]; mouse, in vivo
  B cell expansion/activation: significant activities
  NK and NKT expansion/activation: comparable activities as C1
[3]; sacrificed on day 16 after tumor inoculation
  tumor nodules on the lung surface: reduced number of tumor nodules on the lung surface
[5]; 16 days after treatment
  tumor size: reduced tumor size
[5]; SubQ delivery
  tumor growth and survival compared to control: able to suppress tumor growth and prolong survival as compared to control
Tetanus toxoid (TT)
  antibody response relative to conventional vaccine: ~2 fold
  durability of adjuvant effects: remarkably durable
  level of antibody after delayed boost compared with TT+Alum: twice as high as those given TT+Alum
[8]
  adjuvant effect (comparison): best adjuvant effect which was equivalent to complete Freund's adjuvant (CFA)
  titer relative to C1: 3 fold
[6]
  survival: significantly enhanced survival
Sphingomonas capsulata; 50 μg/kg
  antibacterial efficacies (CFU in liver): significant in comparison to the untreated group
  difference in the values of the CFU per gram liver among efficacious groups: not statistically significant
Sphingomonas capsulata
  CFU numbers in liver: significantly lower than the control group

## CCCCCCCCCCCCCCCCCCCCCCCCCC(=O)N[C@@H](CO[C@H]1O[C@H](CO)[C@H](O)[C@H](O)[C@H]1O)[C@H](O)[C@H](O)CCCCc1ccccc1 [C12]
[1]
  IFN/IL-4 ratio (TH1/TH2 bias): more TH1-biased
BALB/c mice [2]
  total and mature DCs: significantly greater rises in total and mature DCs than C1
  activation of B cells: stronger activations of B cells than C1
BALB/c mice [2]; FIGS. 26C-D, 28C-D and 30C-D
  expansion/activation of NKs and NKTs: best capacity for expansion/activation of NKs and NKTs
BALB/c mice [2]; FIGS. 26F, 28F and 30F
  CD8^+ T cell expansion/activation: more active than C1
[3]
  anti-cancer efficacy compared with C1: significantly greater anti-cancer efficacy than C1

## CCCCCCCCCCCCCC[C@@H](O)[C@@H](O)[C@H](CO[C@H]1O[C@H](CO)[C@H](O)[C@H](O)[C@H]1O)NC(=O)CCCCCCCCCCc1ccc(-c2ccccc2)cc1 [C26]
[9]
  IFN-γ/IL4 ratio: higher IFN-γ/IL4 ratio
  IL-2: higher levels of IL-2
C57BL/6 mice
  total number of NKTs and its two subtypes NKT1 and NKT2: increase of total number of NKTs
[10]
  adjuvant activities in enhancing the anti-HAc antibody titer: better adjuvant activities than the others in enhancing the antibody titer
  anti-HA-specific IgG antibody: enhanced
  effectiveness as adjuvant: particularly effective as adjuvants
